Common to all, as to assay: DTP human tumour cell line panel, 48 h
The test system of experiment [1] is CCRF-CEM leukemia.
Experiment [2] deals with COLO 205 colon.
Experiment [3] concerns HCC-2998 colon.
Experiment [4] has as its system HS 578T breast.
Experiment [5] has as its system K-562 leukemia.
Experiment [6] deals with KM12 colon.
In experiment [7] the test system is MDA-MB-231 breast.
Experiment [8] relates to MOLT-4 leukemia.
The subject of experiment [9] is NCI-H460 lung.
Experiment [10] deals with OVCAR-5 ovarian.
Experiment [11] has as its system SK-MEL-28 melanoma.
In experiment [12] the test system is SNB-19 CNS.

Experimental findings from PubChem BioAssay (NCI) are described below.

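Protocol summary: plate cells (96-well), add compound at 5 concentrations, incubate 48 h, interpolate endpoints linearly. TGI is the concentration that stops growth completely.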 Where a SMILES comes first, the peptide text is derived from it. Bridges are numbered along the chain shown (N, C = ends). [ ]: non-standard residue; d: D form. Aib = CC(C)(N)C(=O)O; βAla = NCCC(=O)O

For `Oc1c(Br)cc(/C=C/c2ccnc(/C=C/c3cc(Br)c(O)c(Br)c3)c2)cc1Br`, the TGI – broadly, the concentration at which net growth stops – is above 100 µM in [1]; 59.9 µM in experiment [2]; above 100 µM in experiment [3]; above 100 µM in experiment [4]; 60.1 µM in experiment [5]; 38.7 µM in experiment [6]. For the same compound, the TGI in experiment [7] is 59.4 µM; in [8], 45.8 µM; in experiment [9], above 100 µM; in experiment [10], 55.3 µM; in experiment [11], above 100 µM; in experiment [12] it was above 100 µM.

Regarding `O=C(O)c1ccccc1C(=O)NCC1S(=O)(=O)OCCOS1(=O)=O`, the TGI in [1], in experiment [2], in experiment [3], in experiment [4], in [5] and in experiment [7] was above 100 µM throughout. The TGI in [8], in experiment [9], in [10], in experiment [11] and in [12] was above 100 µM in each case.

As to `Cc1ccc2c(c1)C(=C(C#N)C#N)CCCS2(=O)=O`, the TGI in experiment [1], in [2], in [3], in [4], in [5] and in experiment [6] was above 100 µM in each case. Further, the TGI in experiment [7], in experiment [8], in experiment [9], in experiment [10], in experiment [11] and in experiment [12] was above 100 µM in each case.

As for `COC(=O)CCC(=O)c1ccc2c(c1)CCC2`, the TGI in experiment [1], in experiment [3], in [4], in experiment [5], in [7] and in experiment [8] was above 100 µM in each case. Further, the TGI in experiment [9], in experiment [10], in experiment [11] and in [12] was above 100 µM in each case.

Take `Cc1[nH]c(=O)nc2nc3cc(Cl)cc(Cl)c3c(NC(C)(CO)CO)c12`: the total growth inhibition concentration (TGI) in experiment [1], in [2], in [3], in [4], in experiment [5] and in experiment [6] was above 100 µM throughout. Moreover, the TGI was 36.9 µM in experiment [7]; above 100 µM in [8]; above 100 µM in experiment [9]; above 100 µM in experiment [11]; above 100 µM in [12].

With `COc1ccc(S(=O)(=O)N2C(=O)CCC2C(=O)NC(N)=O)cc1` (stereo unspecified), the TGI in experiment [1], in [2], in experiment [4], in experiment [5], in experiment [6] and in experiment [7] was above 100 µM in each case. Besides, the TGI in experiment [8], in experiment [9], in [10], in experiment [11] and in [12] was above 100 µM in each case.

For `COc1ccc(N=c2oc3ccccc3cc2C(N)=O)cc1`, the TGI is above 100 µM in experiment [1]; above 100 µM in experiment [2]; above 100 µM in experiment [3]; 42.9 µM in experiment [4]; above 100 µM in [5]; above 100 µM in experiment [6]. Besides, the TGI in [7] was above 100 µM; in experiment [8] it was above 100 µM; in [9], above 100 µM; in experiment [11], above 100 µM; in experiment [12] it was 24.7 µM.

Take `COc1ccc(C2SC(N)=Nc3c2c(C)nn3C(=O)c2ccccc2O)cc1OC` (stereo unspecified): the TGI in experiment [1] was above 10 µM; in [2], above 10 µM; in experiment [4], 5.11 µM; in experiment [5], above 10 µM; in [6], above 10 µM; in experiment [7], above 10 µM. Besides, the TGI in [8], in experiment [9], in experiment [10], in experiment [11] and in experiment [12] was above 10 µM throughout.

`CC(=O)c1nc2ccccc2n1C(C)C(=O)c1ccccc1` (stereo unspecified): the total growth inhibition concentration (TGI) in [1], in [2], in experiment [4], in experiment [5], in [6] and in experiment [7] was above 100 µM each time. The TGI in experiment [8], in experiment [9], in experiment [11] and in experiment [12] was above 100 µM each time.

For `CC1(C)NC(=O)C(NC(=O)C(N)CC(=O)O)CCCCNC(=O)CCNC1=O` (stereo unspecified) (H-DK[Aib][βAla]; lactam 2-C; configuration not given here), the TGI in experiment [1], in experiment [2], in experiment [4], in [5], in experiment [6] and in [7] was above 100 µM throughout. The total growth inhibition concentration (TGI) in experiment [8], in experiment [9], in [10], in experiment [11] and in [12] was above 100 µM in each case.

`COC(=O)[C@]12CC3C=CC1N(C3)C(CBr)c1c2n(S(=O)(=O)c2ccccc2)c2ccccc12` (stereo partly specified): the TGI was above 100 µM in [1]; above 100 µM in experiment [2]; above 100 µM in experiment [3]; above 100 µM in experiment [4]; 0.314 µM in experiment [5]; above 100 µM in experiment [6]. For the same compound, the TGI in experiment [7], in [9], in experiment [10] and in experiment [11] was above 100 µM each time.

Take `CSC1=N/C(=C\c2ccc(Cl)cc2)C(=O)N1CN1CCCCC1`: the concentration for total growth inhibition (TGI) in experiment [1], in [2], in experiment [4], in experiment [5], in experiment [6] and in [7] was above 100 µM in each case. Also, the TGI in [8], in [10] and in experiment [11] was above 100 µM in each case.

Turning to `CC(=O)NC1C(OC(C)C(=O)NC(C)C(=O)NC(CCC(=O)NCCCCCNc2ccc([N+](=O)[O-])c3[nH]c4ccccc4c(=O)c23)C(N)=O)C(O)C(CO)OC1(C)OCc1ccccc1` (stereo unspecified), the TGI in experiment [1], in experiment [2], in experiment [3], in experiment [4], in experiment [5] and in experiment [6] was above 100 µM in each case. Also, the TGI in [7], in [8], in [9], in experiment [10] and in [12] was above 100 µM in each case.

For `C=CC(=O)Nc1ccc(NC(=O)C=C)c2c1C(=O)c1ccccc1C2=O`, the TGI in experiment [2] is above 100 µM; in experiment [3], above 100 µM; in [4] it was above 100 µM; in experiment [5], 48.4 µM; in experiment [6], 29.1 µM; in [7], above 100 µM. For the same compound, the TGI in experiment [8] is 96.4 µM; in [9], above 100 µM; in [10] it was above 100 µM; in [11] it was above 100 µM; in [12], above 100 µM.

On to `CC(=O)OCCn1cnc2c(NCC=C(C)C)ncnc21`, for which the TGI in experiment [1], in experiment [2], in experiment [4], in experiment [5], in [6] and in experiment [7] was above 100 µM in each case. In addition, the TGI in experiment [8], in experiment [9], in experiment [10], in experiment [11] and in [12] was above 100 µM throughout.

In the case of `O=C(Nc1ccccc1)c1cc(S(=O)(=O)Nc2n[nH]c(=O)n2-c2ccccc2)c(S)cc1Cl`, the TGI in experiment [2], in [3], in experiment [4], in experiment [5], in experiment [6] and in [7] was above 100 µM in each case. In addition, the TGI in experiment [8], in experiment [9], in experiment [10], in experiment [11] and in experiment [12] was above 100 µM throughout.

For the compound `CCn1cc2c(=O)n3ncn(-c4ccc(Br)cc4)c3nc2n1`, the TGI in [1], in [2], in experiment [3], in [4], in experiment [5] and in experiment [6] was above 100 µM throughout. The TGI in experiment [7], in [8], in experiment [10], in experiment [11] and in experiment [12] was above 100 µM throughout.

As for `O=C1C2C(C(=O)N1c1ccccc1)C1(c3ccccc3)CCC2(C(=O)c2ccccc2)O1` (stereo unspecified), the total growth inhibition concentration (TGI) in experiment [1], in experiment [2], in experiment [3], in experiment [4], in [6] and in experiment [7] was above 10 µM each time. The TGI in experiment [8], in experiment [9], in experiment [10], in experiment [11] and in experiment [12] was above 10 µM throughout.

Turning to `c1csc(-c2nn3c(C45CC6CC(CC(C6)C4)C5)nnc3s2)c1`, the TGI in [1], in [2], in experiment [3], in [4], in experiment [5] and in experiment [7] was above 100 µM each time. The TGI in experiment [8], in experiment [9], in [10], in experiment [11] and in experiment [12] was above 100 µM throughout.

For the compound `CCOC1OC(COC(=O)C(C)(C)C)C(O)CC1n1cc(C)c(=O)[nH]c1=O` (stereo unspecified), the TGI in experiment [1], in [2], in experiment [3], in experiment [4], in experiment [5] and in experiment [6] was above 100 µM in each case. Also, the total growth inhibition concentration (TGI) in [7], in experiment [9], in [10], in [11] and in [12] was above 100 µM in each case.

On to `N#Cc1ccc(C(O)C(F)(F)c2nc3ccccc3o2)cc1` (stereo unspecified), for which the TGI in experiment [1] is above 100 µM; in [2], above 100 µM; in [3] it was above 100 µM; in experiment [4], above 100 µM; in [5], 45.7 µM; in experiment [6], above 100 µM. Moreover, the TGI in experiment [7], in experiment [8], in [9], in experiment [11] and in experiment [12] was above 100 µM in each case.

As for `CC(=O)OC[C@H]1CN(OC(C)=O)C[C@@H](n2cc(C)c(=O)[nH]c2=O)O1`, the TGI in [2], in experiment [3], in experiment [4], in [5], in [6] and in experiment [7] was above 100 µM in each case. In addition, the TGI in experiment [8], in experiment [9], in [10], in experiment [11] and in experiment [12] was above 100 µM in each case.

Regarding `O=C1NC2c3c(I)sc(I)c3C(=O)C2O1` (stereo unspecified), the TGI is 11 µM in experiment [1]; 15.5 µM in experiment [3]; 35.1 µM in experiment [4]; above 59.9 µM in [5]; 24.3 µM in [6]; 7.86 µM in [7]. Besides, the TGI is above 38.5 µM in [8]; 32.9 µM in [9]; 28.3 µM in experiment [10]; 21.5 µM in [11]; 17.8 µM in [12].

Take `Cc1cc(S(=O)(=O)Nc2n[nH]c(-c3ccc(Cl)cc3)n2)c(SSc2cc(Cl)c(C)cc2S(=O)(=O)Nc2n[nH]c(-c3ccc(Cl)cc3)n2)cc1Cl`: the TGI in experiment [1] is 60.6 µM; in [2] it was 67.4 µM; in [3], 40.7 µM; in [4], above 100 µM; in [5], 62.3 µM; in experiment [6], 77.4 µM. The TGI in experiment [7] was above 100 µM; in [8] it was 54.2 µM; in experiment [9], 62.4 µM; in [10] it was 86.9 µM; in [11], 96.4 µM.
